Patent US11485726B2, “Compound for inhibiting and degrading tyrosine protein kinase ALK” (SHANGHAI MEIZER PHARMACEUTICALS CO., LTD., priority 2017, dated 2022)

Tests used:
SU-DHL-1 cells = assay: Inhibition of proliferation of SU-DHL-1 cells by CTG assay; type: cell-based; conditions: Homo sapiens, compound 100 μM, 72 hours
Experimental: Example 7 Testing the Inhibitory Effect of Formula Compound on the Proliferation of SU-DHL-1 Cells by CTG Assay
The inhibitory effect of the compound on the proliferation of SU-DHL-1 cells ([…]) was determined by the […] method in vitro. The Cells were cultured and the compound was prepared referring to the method of […], and the culture time after administration was 72 hours. Subsequently, an appropriate amount of CTG reagent was added, the luminescence value was measured, and the inhibition rate was calculated.

ALK kinase [1] = target: T1, ALK kinase (Homo sapiens, UniProt Q9UM73); assay: ALK inhibition activity by Caliper assay; type: biochemical; conditions: compound 100 nM
Experimental: Example 5 Testing the ALK Inhibition Activity of Compound by Caliper Assay
The experimental steps were as follows:
Preparation of 1×kinase reaction buffer (50 mM HEPES, PH 7.5; 0.0015% Brij-35) and kinase reaction termination solution (100 mM HEPES, PH 7.5; 0.0015% Brij-35; 0.2% Coating Reagent; 50 mM EDTA);
Preparation of experimental samples: 100 μl of 5 μM sample solution (dissolved in 100% DMSO) was added to a 96-well plate to obtain a 50×sample solution. As controls, two wells containing only 100 μL of 100% DMSO were set on the same plate. One was served as a control without samples and the other was served as a control without enzymes. 10 μL of sample and 90 μL, of 1×kinase reaction buffer were added to a 96-well plate as a transfer plate. The transfer plate was shaken for 10 minutes.
Preparation of the test plate: taking 5 μL of each of the prepared samples from the 96-well transfer plate into a 384-well plate.
Kinase reaction: to 5 μL of 5×compound solution (dissolved in DMSO, diluted 10 times with water) was added 10 μL of 2.5×ALK kinase solution (kinase was diluted with 1×kinase reaction buffer), which was incubated at room temperature for 10 min, and then 10 μL of 2.5×substrate peptide solution (FAM-labeled peptide and ATP were diluted with 1×kinase reaction buffer) was added.
Termination of the kinase reaction: 25 μL of kinase reaction termination solution was added after being reacted at 28° C. for a period of time.
The fluorescence (F) was tested on a Caliper and data was collected.
The inhibition rate of kinase activity was calculated: the percent inhibition rate of kinase activity=(FDMSO control−Fsample)/(FDMSO control−Fnegative control)×100, with DMSO as the solution control, and no kinase as the negative control.
Target sequence in this assay (Q9UM73 19-1620): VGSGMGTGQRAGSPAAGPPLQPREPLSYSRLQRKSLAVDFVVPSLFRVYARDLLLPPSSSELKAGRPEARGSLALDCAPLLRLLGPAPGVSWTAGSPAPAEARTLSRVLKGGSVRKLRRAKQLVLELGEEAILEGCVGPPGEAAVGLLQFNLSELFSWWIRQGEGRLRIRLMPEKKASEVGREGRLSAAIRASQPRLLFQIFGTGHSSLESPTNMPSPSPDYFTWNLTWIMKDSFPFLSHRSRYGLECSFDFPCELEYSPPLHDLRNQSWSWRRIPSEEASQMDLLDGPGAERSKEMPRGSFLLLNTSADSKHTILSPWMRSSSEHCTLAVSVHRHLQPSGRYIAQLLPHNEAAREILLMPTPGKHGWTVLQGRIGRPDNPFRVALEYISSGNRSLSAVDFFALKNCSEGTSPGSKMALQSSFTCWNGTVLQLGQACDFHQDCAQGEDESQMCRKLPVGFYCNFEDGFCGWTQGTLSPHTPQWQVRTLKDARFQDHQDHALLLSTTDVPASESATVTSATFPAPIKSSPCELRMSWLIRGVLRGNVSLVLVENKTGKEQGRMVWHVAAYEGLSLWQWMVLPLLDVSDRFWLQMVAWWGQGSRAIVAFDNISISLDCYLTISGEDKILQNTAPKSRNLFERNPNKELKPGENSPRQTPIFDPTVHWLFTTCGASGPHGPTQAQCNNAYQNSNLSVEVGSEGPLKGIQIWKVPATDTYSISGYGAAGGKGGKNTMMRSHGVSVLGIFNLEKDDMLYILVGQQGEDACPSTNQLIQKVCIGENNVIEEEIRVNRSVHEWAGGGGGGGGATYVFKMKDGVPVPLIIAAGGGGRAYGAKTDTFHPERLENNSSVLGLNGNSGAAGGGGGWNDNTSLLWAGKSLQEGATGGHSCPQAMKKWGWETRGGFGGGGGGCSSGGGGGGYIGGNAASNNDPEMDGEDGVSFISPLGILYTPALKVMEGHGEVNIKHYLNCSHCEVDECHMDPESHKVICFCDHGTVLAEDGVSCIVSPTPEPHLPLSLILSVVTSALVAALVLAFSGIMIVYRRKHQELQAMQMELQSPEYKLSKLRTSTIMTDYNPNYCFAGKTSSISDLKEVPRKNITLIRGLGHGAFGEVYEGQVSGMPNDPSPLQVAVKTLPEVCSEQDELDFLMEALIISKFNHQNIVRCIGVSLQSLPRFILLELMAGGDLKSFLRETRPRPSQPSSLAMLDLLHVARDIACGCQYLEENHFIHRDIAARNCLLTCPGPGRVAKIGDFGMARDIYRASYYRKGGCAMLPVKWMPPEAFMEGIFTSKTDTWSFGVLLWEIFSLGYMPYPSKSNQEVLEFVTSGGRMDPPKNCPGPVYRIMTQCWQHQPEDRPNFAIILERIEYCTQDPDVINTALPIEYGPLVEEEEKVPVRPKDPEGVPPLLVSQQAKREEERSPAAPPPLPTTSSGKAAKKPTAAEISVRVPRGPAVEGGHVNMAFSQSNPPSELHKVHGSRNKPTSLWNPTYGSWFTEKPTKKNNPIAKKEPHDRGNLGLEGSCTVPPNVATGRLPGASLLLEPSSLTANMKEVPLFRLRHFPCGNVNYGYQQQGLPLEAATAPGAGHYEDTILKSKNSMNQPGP

ALK kinase [2] = target: T1, ALK kinase; assay: ALK protein degradation activity by Western blot in H2228 cells; type: cell-based; parameters: H2228 cell lines (human non-small cell line lung cancer cells, available from ATCC); host or cells: H2228 (human non-small cell lung cancer cells); the other entry of the earlier key: EML4 (Q9HC35, Echinoderm microtubule-associated protein-like 4); conditions: NCI-H2228, compound 1 μM, treatment for 24 hours, degradation rate by Western blot
Target sequence in this assay (Q9UM73 with tags, fused parts or gaps): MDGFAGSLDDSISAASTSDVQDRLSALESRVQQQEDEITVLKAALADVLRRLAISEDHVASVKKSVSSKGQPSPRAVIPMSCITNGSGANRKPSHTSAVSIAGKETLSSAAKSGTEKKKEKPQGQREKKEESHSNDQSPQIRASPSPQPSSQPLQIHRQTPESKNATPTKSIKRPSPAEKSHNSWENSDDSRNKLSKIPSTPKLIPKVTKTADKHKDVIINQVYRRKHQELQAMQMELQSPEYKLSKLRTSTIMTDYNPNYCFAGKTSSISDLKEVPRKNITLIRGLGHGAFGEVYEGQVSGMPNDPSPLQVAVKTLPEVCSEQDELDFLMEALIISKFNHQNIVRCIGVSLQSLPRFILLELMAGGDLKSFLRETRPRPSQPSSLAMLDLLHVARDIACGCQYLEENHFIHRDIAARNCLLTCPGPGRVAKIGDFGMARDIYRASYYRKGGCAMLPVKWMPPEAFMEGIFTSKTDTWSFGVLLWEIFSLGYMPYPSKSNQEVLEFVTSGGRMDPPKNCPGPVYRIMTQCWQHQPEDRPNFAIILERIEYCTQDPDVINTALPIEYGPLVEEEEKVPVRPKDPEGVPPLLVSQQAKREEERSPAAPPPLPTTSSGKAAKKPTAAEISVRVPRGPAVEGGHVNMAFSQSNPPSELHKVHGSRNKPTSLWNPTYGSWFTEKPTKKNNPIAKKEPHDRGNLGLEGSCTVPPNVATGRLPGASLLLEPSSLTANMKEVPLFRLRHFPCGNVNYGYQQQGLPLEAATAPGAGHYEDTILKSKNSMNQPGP

Row | SMILES | inhibition at 100 µM (SU-DHL-1 cells) [%] | inhibition at 0.1 µM (ALK kinase [1]) [%] | inhibition at 1 µM (ALK kinase [2]) [%]
1 | Cc1cc(Nc2ncc(Cl)c(Nc3ccccc3S(=O)(=O)C(C)C)n2)c(OC(C)C)cc1C1CCN(CCCCCC(=O)Nc2cccc3c2C(=O)N(C2CCC(=O)NC2=O)C3=O)CC1 (centres unmarked) [Compound 3] | 72 | 98 | > 90
2 | Cc1cc(Nc2ncc(Cl)c(Nc3ccccc3S(=O)(=O)C(C)C)n2)c(OC(C)C)cc1C1CCN(CCCOc2cccc3c2C(=O)N(C2CCC(=O)NC2=O)C3=O)CC1 (centres unmarked) [Compound 24] |  |  | 50 to 90
3 | Cc1cc(Nc2ncc(Cl)c(Nc3ccccc3S(=O)(=O)C(C)C)n2)c(OC(C)C)cc1C1CCN(CCCCNc2cccc3c2C(=O)N(C2CCC(=O)NC2=O)C3=O)CC1 (centres unmarked) [Compound 29] |  |  | 50 to 90
4 | Cc1cc(Nc2ncc(Cl)c(Nc3ccccc3S(=O)(=O)C(C)C)n2)c(OC(C)C)cc1C1CCN(CC(=O)NCCOCCOCCOCCOCCOCCNc2cccc3c2C(=O)N(C2CCC(=O)NC2=O)C3=O)CC1 (centres unmarked) [Compound 38] |  |  | 50 to 90
5 | Cc1cc(Nc2ncc(Cl)c(Nc3ccccc3S(=O)(=O)C(C)C)n2)c(OC(C)C)cc1C1CCN(CCOCCOc2cccc3c2C(=O)N(C2CCC(=O)NC2=O)C3=O)CC1 (centres unmarked) [Compound 21] |  |  | 50 to 90
6 | Cc1cc(Nc2ncc(Cl)c(Nc3ccccc3S(=O)(=O)C(C)C)n2)c(OC(C)C)cc1C1CCN(CC(=O)NCCOCCOCCOc2cccc3c2C(=O)N(C2CCC(=O)NC2=O)C3=O)CC1 (centres unmarked) [Compound 41] |  |  | > 90
7 | Cc1cc(Nc2ncc(Cl)c(Nc3ccccc3S(=O)(=O)C(C)C)n2)c(OC(C)C)cc1C1CCN(CCCC(=O)Nc2cccc3c2C(=O)N(C2CCC(=O)NC2=O)C3=O)CC1 (centres unmarked) [Compound 17] |  |  | > 90
8 | Cc1cc(Nc2ncc(Cl)c(Nc3ccccc3S(=O)(=O)C(C)C)n2)c(OC(C)C)cc1C1CCN(CCCCCNc2cccc3c2C(=O)N(C2CCC(=O)NC2=O)C3=O)CC1 (centres unmarked) [Compound 28] |  |  | > 90
9 | Cc1cc(Nc2ncc(Cl)c(Nc3ccccc3S(=O)(=O)C(C)C)n2)c(OC(C)C)cc1C1CCN(CCOCCOCCOCCOCCOc2cccc3c2C(=O)N(C2CCC(=O)NC2=O)C3=O)CC1 (centres unmarked) [Compound 25] |  |  | > 90
10 | Cc1cc(Nc2ncc(Cl)c(Nc3ccccc3S(=O)(=O)C(C)C)n2)c(OC(C)C)cc1C1CCN(CCOCCOCCOCCNc2cccc3c2C(=O)N(C2CCC(=O)NC2=O)C3=O)CC1 (centres unmarked) [Compound 14] | 99 | 89 | > 90
11 | Cc1cc(Nc2ncc(Cl)c(Nc3ccccc3S(=O)(=O)C(C)C)n2)c(OC(C)C)cc1C1CCN(CC(=O)NCCOCCOc2cccc3c2C(=O)N(C2CCC(=O)NC2=O)C3=O)CC1 (centres unmarked) [Compound 40] |  |  | > 90
12 | Cc1cc(Nc2ncc(Cl)c(Nc3ccccc3S(=O)(=O)C(C)C)n2)c(OC(C)C)cc1C1CCN(CCOCCNc2cccc3c2C(=O)N(C2CCC(=O)NC2=O)C3=O)CC1 (centres unmarked) [Compound 27] |  |  | > 90
13 | Cc1cc(Nc2ncc(Cl)c(Nc3ccccc3S(=O)(=O)C(C)C)n2)c(OC(C)C)cc1C1CCN(CCOCCOCCOc2cccc3c2C(=O)N(C2CCC(=O)NC2=O)C3=O)CC1 (centres unmarked) [Compound 7] | 98 | 97 | > 90
14 | Cc1cc(Nc2ncc(Cl)c(Nc3ccccc3S(=O)(=O)C(C)C)n2)c(OC(C)C)cc1C1CCN(CC(=O)NCCOCCOCCNc2cccc3c2C(=O)N(C2CCC(=O)NC2=O)C3=O)CC1 (centres unmarked) [Compound 35] |  |  | > 90
15 | Cc1cc(Nc2ncc(Cl)c(Nc3ccccc3S(=O)(=O)C(C)C)n2)c(OC(C)C)cc1C1CCN(CC(=O)NCCOc2cccc3c2C(=O)N(C2CCC(=O)NC2=O)C3=O)CC1 (centres unmarked) [Compound 39] |  |  | > 90
16 | Cc1cc(Nc2ncc(Cl)c(Nc3ccccc3S(=O)(=O)C(C)C)n2)c(OC(C)C)cc1C1CCN(CCOCCOCCC(=O)Nc2cccc3c2C(=O)N(C2CCC(=O)NC2=O)C3=O)CC1 (centres unmarked) [Compound 19] |  |  | > 90
17 | Cc1cc(Nc2ncc(Cl)c(Nc3ccccc3S(=O)(=O)C(C)C)n2)c(OC(C)C)cc1C1CCN(CC(=O)NCCNc2cccc3c2C(=O)N(C2CCC(=O)NC2=O)C3=O)CC1 (centres unmarked) [Compound 33] |  |  | > 90

Row | SMILES | inhibition at 100 µM (SU-DHL-1 cells) [%] | inhibition at 0.1 µM (ALK kinase [1]) [%] | inhibition at 1 µM (ALK kinase [2]) [%]
18 | Cc1cc(Nc2ncc(Cl)c(Nc3ccccc3S(=O)(=O)C(C)C)n2)c(OC(C)C)cc1C1CCN(CCCCOc2cccc3c2C(=O)N(C2CCC(=O)NC2=O)C3=O)CC1 (centres unmarked) [Compound 23] |  |  | 50 to 90
19 | Cc1cc(Nc2ncc(Cl)c(Nc3ccccc3S(=O)(=O)C(C)C)n2)c(OC(C)C)cc1C1CCN(CCC(=O)Nc2cccc3c2C(=O)N(C2CCC(=O)NC2=O)C3=O)CC1 (centres unmarked) [Compound 18] |  |  | > 90
20 | Cc1cc(Nc2ncc(Cl)c(Nc3ccccc3S(=O)(=O)C(C)C)n2)c(OC(C)C)cc1C1CCN(CCOCCOCCOCCOCCOCCOc2cccc3c2C(=O)N(C2CCC(=O)NC2=O)C3=O)CC1 (centres unmarked) [Compound 26] |  |  | 50 to 90
21 | Cc1cc(Nc2ncc(Cl)c(Nc3ccccc3S(=O)(=O)C(C)C)n2)c(OC(C)C)cc1C1CCN(CCOCCOCCOCCC(=O)Nc2cccc3c2C(=O)N(C2CCC(=O)NC2=O)C3=O)CC1 (centres unmarked) [Compound 20] |  |  | > 90
22 | Cc1cc(Nc2ncc(Cl)c(Nc3ccccc3S(=O)(=O)C(C)C)n2)c(OC(C)C)cc1C1CCN(C(=O)COCCOCCNc2cccc3c2C(=O)N(C2CCC(=O)NC2=O)C3=O)CC1 (centres unmarked) [Compound 10] |  | 99 | > 90
23 | Cc1cc(Nc2ncc(Cl)c(Nc3ccccc3S(=O)(=O)C(C)C)n2)c(OC(C)C)cc1C1CCN(CCCNc2cccc3c2C(=O)N(C2CCC(=O)NC2=O)C3=O)CC1 (centres unmarked) [Compound 30] |  |  | 50 to 90
24 | Cc1cc(Nc2ncc(Cl)c(Nc3ccccc3S(=O)(=O)C(C)C)n2)c(OC(C)C)cc1C1CCN(S(=O)(=O)CCCCCOc2cccc3c2C(=O)N(C2CCC(=O)NC2=O)C3=O)CC1 (centres unmarked) [Compound 13] |  | 69 | > 90
25 | Cc1cc(Nc2ncc(Cl)c(Nc3ccccc3S(=O)(=O)C(C)C)n2)c(OC(C)C)cc1C1CCN(CC(=O)NCCOCCOCCOCCOCCNc2cccc3c2C(=O)N(C2CCC(=O)NC2=O)C3=O)CC1 (centres unmarked) [Compound 37] |  |  | 50 to 90
26 | Cc1cc(Nc2ncc(Cl)c(Nc3ccccc3S(=O)(=O)C(C)C)n2)c(OC(C)C)cc1C1CCN(CCOCCOCCOCCOCCOCCNc2cccc3c2C(=O)N(C2CCC(=O)NC2=O)C3=O)CC1 (centres unmarked) [Compound 32] |  |  | 50 to 90
27 | Cc1cc(Nc2ncc(Cl)c(Nc3ccccc3S(=O)(=O)C(C)C)n2)c(OC(C)C)cc1C1CCN(CCOCCOCCOCCOCCNc2cccc3c2C(=O)N(C2CCC(=O)NC2=O)C3=O)CC1 (centres unmarked) [Compound 31] |  |  | > 90
28 | Cc1cc(Nc2ncc(Cl)c(Nc3ccccc3S(=O)(=O)C(C)C)n2)c(OC(C)C)cc1C1CCN(CC(=O)NCCOCCOCCOCCOCCOCCOc2cccc3c2C(=O)N(C2CCC(=O)NC2=O)C3=O)CC1 (centres unmarked) [Compound 44] |  |  | 50 to 90
29 | Cc1cc(Nc2ncc(Cl)c(Nc3ccccc3S(=O)(=O)C(C)C)n2)c(OC(C)C)cc1C1CCN(CCCCC(=O)Nc2cccc3c2C(=O)N(C2CCC(=O)NC2=O)C3=O)CC1 (centres unmarked) [Compound 16] |  |  | > 90
30 | Cc1cc(Nc2ncc(Cl)c(Nc3ccccc3S(=O)(=O)C(C)C)n2)c(OC(C)C)cc1C1CCN(CC(=O)NCCOCCOCCOCCOCCOc2cccc3c2C(=O)N(C2CCC(=O)NC2=O)C3=O)CC1 (centres unmarked) [Compound 43] |  |  | 50 to 90
31 | Cc1cc(Nc2ncc(Cl)c(Nc3ccccc3S(=O)(=O)C(C)C)n2)c(OC(C)C)cc1C1CCN(CCCCCOc2cccc3c2C(=O)N(C2CCC(=O)NC2=O)C3=O)CC1 (centres unmarked) [Compound 22] |  |  | 50 to 90
32 | Cc1cc(Nc2ncc(Cl)c(Nc3ccccc3S(=O)(=O)C(C)C)n2)c(OC(C)C)cc1C1CCN(CC(=O)NCCOCCOCCOCCNc2cccc3c2C(=O)N(C2CCC(=O)NC2=O)C3=O)CC1 (centres unmarked) [Compound 36] |  |  | > 90
33 | Cc1cc(Nc2ncc(Cl)c(Nc3ccccc3S(=O)(=O)C(C)C)n2)c(OC(C)C)cc1C1CCN(CC(=O)NCCOCCOCCOCCOc2cccc3c2C(=O)N(C2CCC(=O)NC2=O)C3=O)CC1 (centres unmarked) [Compound 42] |  |  | > 90
